As a reminder, the IC50 is the midpoint of a concentration-inhibition curve.

Data set [1] relates to human recombinant VEGFR. More on the design: method as in previously reported, see ref (number not given). The settings on record: ref previously reported, see ref (number not given); read-out: IC50, TKI activity against human recombinant VEGFR; cited from earlier work.
Data set [2] has as its system p-ERK1/2 in hIPF fibroblasts. The experiment in a line: Western blot of ERK1/2 phosphorylation. In kind it is cell-based, human. The conditions noted are these: 24 h, 5 μM, Western blot densitometry normalized to vinculin, vs untreated, three independent experiments. The source says: (§1) The effect of treatment with compound 1 on patient-derived hIPF fibroblasts was next investigated by evaluating the inhibition of both TGF-β1 production and ERK1/2 phosphorylation. It is important to note that TGF-β1 expression is usually evaluated in cultured cells in secreted form in their culture medium (soluble and active form of TGF-β1 (13 kDa)). We reasoned that the evaluation of the intracellular form of full-length TGF-β1 (44 kDa) in hIPF fibroblasts might directly reflect the potency of the conjugated compound to inhibit TGF-β1 production. Evaluation of these fibrosis-related hallmarks would have been indicative of the downstream effect of our conjugate on IPF-related human cell signaling promoted by either the integrin ligand, the nintedanib component, or both. […]
(§2) The protein content in each sample was quantified using the Bradford colorimetric assay, and 56 μg of total proteins was prepared for SDS-PAGE analysis using Bolt LDS Sample Buffer 4× (Novex, Life Technologies) with 10% Bolt Sample Reducing Agent 10× (Novex, Life Technologies). […] Each band detected was quantified by densitometric analysis, using ImageJ software, and normalized against vinculin expression as the housekeeper protein.

The subject of data set [3] is hIPF fibroblasts. The experiment in a line: Cell internalization by flow cytometry (intrinsic nintedanib fluorescence). The settings on record: 24 h, 5 μM, flow cytometry λex 405 nm, BV421 channel, one representative result. In kind it is cell-based, human. Background: In flow cytometry, cells or beads pass a laser one at a time.
Method: Cells were exposed for 24 h for treatment with compound 1 or nintedanib at 5 μM concentration; next, the percentage of positive cells of different treatment populations was determined and compared with the fluorescence intensity of untreated (UT) cells.
The integrin-mediated cell internalization of conjugate 1 and free nintedanib was determined by exploiting the intrinsic fluorescence of the nintedanib moiety (λex = 405 nm; λem = 480 nm). Intracellular fluorescence activity of 5 μM nintedanib was measured by flow cytometry. Fluorescence emission was analyzed using the BD Brilliant Violet 421 channel (450/50 nm bandpass filter) for the 405 nm laser.
Briefly, 150,000 cells were seeded in T25 flasks in complete culture medium and treated for 24 h with nintedanib or compound 1 at 5 μM concentration. After incubation, the cells were washed with PBS, gently detached using trypsin–EDTA solution, and resuspended in complete medium. After centrifugation (1500 rpm for 5 min), the cells were washed in PBS and resuspended in 300 μL of PBS for FACS analysis.
For data set [4], the system named is TGF-β1 in hIPF fibroblasts. Put plainly: Western blot of intracellular TGF-β1 (44 kDa) expression. In kind it is cell-based, human. The conditions noted are these: 24 h, 5 μM, Western blot densitometry normalized to vinculin, vs untreated, three independent experiments.
Source text: as §1, §2
(A western blot detects proteins with antibodies after separation by electrophoresis.)

The test system of data set [5] is BLM-induced lung fibrosis. Put plainly: Antifibrotic therapy in BLM-induced lung fibrosis mouse model (Study #2; μCT, histology). The settings on record: day 14 to 21, BLM mice; for severe fibrotic lesions (Ashcroft score, histology): left lobe, Picrosirius red, day 21, vs BLM. The class given is in vivo, C57Bl/6 mice.
Source text: After triple BLM instillation, all mice underwent μCT imaging on days 14 and 21, indicating the beginning and the end of the therapeutic window. , On day 14, the BLM-treated mice were divided into 5 groups, namely, Vehicle, NINT (23), NINT (94), PepNIN 1 (23), and Ligand 11 (23). […] The two remaining groups received the NINT (23) (nintedanib at 23 μmol/kg) and ligand 11 (23) (cyclopeptide ligand 11 at 23 μmol/kg) alone to investigate the therapeutic effect of each single component at this reduced dosage.
Bleomycin hydrochloride (Baxter) dissolved in 50 μL of saline was administered via a triple oropharyngeal aspiration (OA) under 2.5% isoflurane anesthesia to induce pulmonary fibrosis, as previously described. , The negative control group received a triple OA with saline (Saline).
In Study #2, BLM-treated mice (29 of 35 mice) on day 14 were divided into 5 different groups (reported in Table S2, Supporting Information) and were daily treated with nintedanib (94 or 23 μmol/kg), PepNIN 1 (23 μmol/kg), integrin ligand 11 (23 μmol/kg), or vehicle (1% Tween 80 in ultrapure water) by oral gavage from day 14 to day 21. All mice were longitudinally monitored by μCT imaging on days 14 and 21, and subsequently they were sacrificed for the histological assessment of lung fibrosis.
Mice thoraxes were imaged using a Quantum GX Micro-CT scanner (Revvity, Inc. Waltham, MA) after anesthetic induction and maintenance with 2% isoflurane. Images were taken in free-breathing mice using the following parameters: an X-ray tube current of 88 A, an X-ray tube voltage of 90 kV, and a total angle of 360° over a scan period of 4 min. The detector was 736 × 588 pixels with a size of 0.2 mm. The reconstruction method automatically trimmed the pixels to produce a projection size of 512 × 512 pixels. Binning was not employed. Each animal was placed supine on the scanner bed, with its chest adjusted to fit inside the field of view. To detect the breathing pattern, pictures were captured in “high-speed” mode, allowing the recording of the gating signal through a region of interest (ROI) positioned over the animals’ diaphragm. Projections were collected in “list mode” (labeled as “00000”, “00001”, ···, “14′687”) during a single continuous gantry rotation. […] The acquisition duration was 4 min, and around 900 projections (both P01 and P02) were automatically selected and used for the reconstruction of the two data sets, with the option to change the thresholds to select the most suited projections. However, our highly controlled anesthetic protocol , enabled us to maintain constant breathing rates (100–120 bpm). Two stacks of 512 cross-sectional images were automatically reconstructed into two 3D data sets corresponding to the inspiratory and expiratory breathing phases (end-inspiration, P01; end-expiration, P02), with a 50 μm isotropic reconstructed voxel size, using a filtered back-projection algorithm with a Ram-Lak filter.
Data set [6] can be described thus: Body weight monitoring and tolerability in Study #2. In kind it is in vivo, C57Bl/6 mice. The settings on record: triple oropharyngeal BLM, within the first 7 days, compared to saline group. From the text:
Figure A illustrates the setup of the pharmacological experiment identified as Study #2 (see also Table S2 in the Supporting Information). After triple BLM instillation, all mice underwent μCT imaging on days 14 and 21, indicating the beginning and the end of the therapeutic window. , On day 14, the BLM-treated mice were divided into 5 groups, namely, Vehicle, NINT (23), NINT (94), PepNIN 1 (23), and Ligand 11 (23). The reference standard in our drug discovery studies is NINT (94), representing the ideal dosage (94 μmol/kg) of the FDA-approved drug that produces antifibrotic effects in the preclinical BLM model. To better emphasize the synergistic therapeutic effect of nintedanib when it is covalently conjugated with our integrin ligand, the stoichiometric dose of nintedanib within the PepNIN 1 group was reduced by four times (to 23 μmol/kg). […]
The experiments were carried out on male C57Bl/6 mice aged 7–8 weeks, purchased from Envigo (San Pietro al Natisone, Udine, Italy). […] All required measures were taken to mitigate the animals’ distress or discomfort, and a designated veterinarian or trained technicians assessed pain levels daily using a Visual Analogue Scale (VAS) ranging from 0 to 10. […]

The mark [7] stands for this setting: 94 μmol/kg oral gavage daily, vs BLM group.

In the case of `COC(=O)c1ccc2c(c1)NC(=O)/C2=C(\Nc1ccc(N(C)C(=O)CN2CCN(C)CC2)cc1)c1ccccc1` [nintedanib], in data set [1], the IC50 was 7 nM. The ERK1/2 phosphorylation entry in data set [2] was “reduced”. Further, the “percentage of positive cells (internalization)” value is reported as “about 94%” in data set [3] and 93.8% in data set [3] (listed as NINT). For the same compound, the “expression of intracellular form of TGF-β1 (44 kDa)” value in data set [4] is “reduced”. Also, the “severe fibrotic lesions (Ashcroft score, histology)” value in data set [5] (23 μmol/kg oral gavage daily) was “had no effects”; in data set [5] (94 μmol/kg oral gavage daily) it was “clearly reduced severe fibrotic lesions”. The “lung aeration by longitudinal μCT (%GasExpiration, poorly aerated tissue)” value in data set [5] (23 μmol/kg oral gavage daily, vs BLM group) was “tendency toward disease progression”; in data set [5] (setting [7]), “significantly improved lung aeration”. Moreover, the “CT biomarkers adjusted to own basal value on day 14” value in data set [5] (setting [7]) is given as “statistically significant improvement”.

Regarding Bleomycin hydrochloride [BLM], the body weight reduction in data set [6] is recorded as 10–15%.

The record behind these values is paper PMC12519263, “Antifibrotic Efficacy of a Nintedanib–Peptide Conjugate and Diagnostic Potential of a Fluorescent Companion Probe Targeting αVβ6 Integrin in Idiopathic Pulmonary Fibrosis” (ACS Pharmacology & Translational Science, 2025).
